This note sets out measurements from patent US11066414B2, “Cot modulators and methods of use thereof” (Gilead Sciences, Inc., priority 2015, dated 2021).

Molecules are shown by their SMILES. Where two headings read alike, the source gives them in different places.

One experiment deals with TNFα. Put plainly: Cot Monocyte TNFα Cell Based Assay.
For the next experiment, the target named is Human Cot (Homo sapiens (Human), UniProt P41279). Put plainly: High Throughput Cot Biochemical Assay. The note with it: Cot HTRF (TR-FRET) biochemical assay. On the technique in general: In TR-FRET formats the signal depends on donor and acceptor labels being close together.
Human Cot, sequence (P41279 30-397): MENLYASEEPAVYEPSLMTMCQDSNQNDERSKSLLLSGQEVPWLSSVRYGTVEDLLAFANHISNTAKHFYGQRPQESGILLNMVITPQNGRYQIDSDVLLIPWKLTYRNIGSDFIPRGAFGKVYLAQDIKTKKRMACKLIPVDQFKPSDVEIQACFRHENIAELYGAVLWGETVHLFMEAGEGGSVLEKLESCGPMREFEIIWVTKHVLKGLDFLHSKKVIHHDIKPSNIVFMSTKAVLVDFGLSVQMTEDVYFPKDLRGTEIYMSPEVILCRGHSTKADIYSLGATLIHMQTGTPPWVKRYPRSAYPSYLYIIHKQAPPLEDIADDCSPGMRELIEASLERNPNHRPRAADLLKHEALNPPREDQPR
Where [1] appears, read: Homo sapiens, Monocyte, read-out: EC50 TNF, LPS-stimulated human monocytes, TNFα.
The mark [2] stands for this setting: read-out: EC50 TNF, LPS-stimulated human monocytes, TNFα.

The term EC50 denotes the midpoint of the concentration-response curve. What is called IC50 is the concentration needed to halve the response being measured. Turning to `Cc1nc(F)ccc1[C@H](Nc1cc(C#N)c2ncc(C#N)c(NCC(C)(C)C)c2c1)c1cn([C@@H]2C[C@@H]2F)nn1` [Example 622, 6-(((S)-(6-fluoro-2-methylpyridin-3-yl)(1-((1R,2S)-2-fluorocyclopropyl)-1H-1,2,3-triazol-4-yl)methyl)amino)-4-(neopentylamino)quinoline-3,8-dicarbonitrile], the concentration giving a half-maximal response (EC50) with TNFα (setting [1]) stood at 24 nM. Moreover, the IC50 at Human Cot (IC50 HTRF) was 1 nM.

`Cc1nc(F)ccc1[C@H](Nc1cc(C#N)c2ncc(C#N)c(NCC(C)(C)C)c2c1)c1cn([C@@H](C)CF)nn1` [Example 623, 6-(((S)-(6-fluoro-2-methylpyridin-3-yl)(1-((S)-1-fluoropropan-2-yl)-1H-1,2,3-triazol-4-yl)methyl)amino)-4-(neopentylamino)quinoline-3,8-dicarbonitrile]: the EC50 in the experiment on TNFα (setting [1]) was 27 nM. For the same compound, the midpoint of inhibition against Human Cot (IC50 HTRF), the IC50, lay at 1 nM.

For `Cc1nc(F)ccc1[C@H](Nc1cc(Cl)c2ncc(C#N)c(NCC(C)(C)C)c2c1)c1cn(C2(C(=O)O)CC(F)(F)C2)nn1` [Example 624, (S)-1-(4-(((8-chloro-3-cyano-4-(neopentylamino)quinolin-6-yl)amino)(6-fluoro-2-methylpyridin-3-yl)methyl)-1H-1,2,3-triazol-1-yl)-3,3-difluorocyclobutane-1-carboxylic acid], the EC50 in the experiment with TNFα (setting [1]) stood at 1000 nM. This compound also yielded an IC50 against Human Cot (IC50 HTRF) of 11 nM.

As for `Cc1nc(F)ccc1[C@H](Nc1cc(C#N)c2ncc(C#N)c(NCC(C)(C)C)c2c1)c1cn(C(C)(C)CF)nn1` [Example 625, (S)-6-(((1-{1-fluoro-2-methylpropan-2-yl)-1H-1,2,3-triazol-4-yl)(6-fluoro-2-methylpyridin-3-yl)methyl)amino)-4-(neopentylamino)quinoline-3,8-dicarbonitrile], in the experiment on TNFα (setting [1]), the EC50 is 26 nM. Besides, half-maximal inhibition against Human Cot (IC50 HTRF) (IC50) required 2 nM.

In the case of `CC(C)(C)CNc1c(C#N)cnc2c(C#N)cc(N[C@H](c3cn(C4(C(F)(F)F)CC4)nn3)c3ccc(F)c4cnccc34)cc12` [Example 626], in the experiment with TNFα (setting [2]), the EC50 worked out at 35 nM. Further, the IC50 at Human Cot (read-out: IC50 HTRF) was 5 nM.

On to `CC(C)(C)CNc1c(C#N)cnc2c(C#N)cc(N[C@H](c3cn(C4(C(F)(F)F)CC4)nn3)c3ccc(F)c4ncccc34)cc12` [Example 627, (S)-6-(((8-fluoroquinolin-5-yl)(1-(1-(trifluoro-methyl)cyclopropyl)-1H-1,2,3-triazol-4-yl)methyl)amino)-4-(neopentylamino)quinoline-3,8-dicarbonitrile], for which the EC50 in the experiment with TNFα (setting [1]) was determined as 46 nM. Also, the concentration for half-maximal inhibition (IC50) against Human Cot (IC50 HTRF) is 4 nM.

As for `CC(C)(C)CNc1c(C#N)cnc2c(Cl)cc(N[C@H](c3cn(C4(C(F)(F)F)CC4)nn3)c3cncc4ccccc34)cc12` [Example 628, (S)-8-chloro-6-((isoquinolin-4-yl(1-(1-(trifluoromethyl)cyclopropyl)-1H-1,2,3-triazol-4-yl)methyl)amino)-4-(neopentylamino)quinoline-3-carbonitrile], the EC50 with TNFα (setting [1]) was determined as 1000 nM. The IC50 against Human Cot (IC50 HTRF) is 450 nM.

Turning to `CC(C)(C)CNc1c(C#N)cnc2c(Cl)cc(N[C@@H](c3cnc4ccccc4c3)c3cn(C4(C(F)(F)F)CC4)nn3)cc12` [Example 629, (S)-8-chloro-4-(neopentylamino)-6-((quinolin-3-yl(1-(1-(trifluoromethyl)cyclopropyl)-1H-1,2,3-triazol-4-yl)methyl)amino)quinoline-3-carbonitrile], in the experiment on TNFα (setting [1]), the EC50 is 1000 nM. At Human Cot (IC50 HTRF), this compound yielded a 50% inhibitory concentration (IC50) of 181 nM.

With `Cn1ccc2c([C@H](Nc3cc(C#N)c4ncc(C#N)c(NCC(C)(C)C)c4c3)c3cn(C4(C(F)(F)F)CC4)nn3)cccc2c1=O` [Example 631, (S)-6-(((2-methyl-1-oxo-1,2-dihydroisoquinolin-5-yl)(1-(1-(trifluoromethyl)-cyclopropyl)-1H-1,2,3-triazol-4-yl)methyl)amino)-4-(neopentylamino)quinoline-3,8-dicarbonitrile], the EC50 in the experiment with TNFα (setting [1]) was 32 nM. At Human Cot (IC50 HTRF), this compound registered an IC50 of 2 nM.

Turning to `Cc1nc(F)ccc1[C@H](Nc1cc(Cl)c2ncc(C#N)c(NCC(C)(C)C#N)c2c1)c1cn(C2(C(F)(F)F)CC2)nn1` [Example 633, (S)-8-chloro-4-((2-cyano-2-methylpropyl)amino)-6-(((6-fluoro-2-methylpyridin-3-yl)(1-(1-(trifluoromethyl)cyclopropyl)-1H-1,2,3-triazol-4-yl)methyl)amino)quinoline-3-carbonitrile], the EC50 in the experiment with TNFα (setting [1]) was determined as 267 nM. For the same compound, inhibition against Human Cot (IC50 HTRF) was half-maximal at 28 nM (IC50).

Regarding `Cc1nc(F)ccc1[C@H](Nc1cc(C#N)c2ncc(C#N)c(NCC(C)(C)C)c2c1)c1cn(CC(F)F)nn1` [Example 634, (S)-6-(((1-(2,2-dinuoroethyl)-1H-1,2,3-triazol-4-yl)(6-fluoro-2-methylpyridin-3-yl)methyl)amino)-4-(neopentylamino)quinoline-3,8-dicarbonitrile], the EC50 with TNFα (setting [2]) turned out to be 43 nM. For the same compound, the IC50 on Human Cot (read-out: IC50 HTRF) was found to be 2 nM.

With `Cc1nc(F)ccc1[C@H](Nc1cc(Cl)c2ncc(C#N)c(NCC(C)(C)CCl)c2c1)c1cn(C2(C(F)(F)F)CC2)nn1` [Example 635, (S)-8-chloro-4-((3-chloro-2,2-dimethylpropyl)amino)-6-(((6-fluoro-2-methylpyridin-3-yl)(1-(1-(trifluoromethyl)cyclopropyl)-1H-1,2,3-triazol-4-yl)methyl)amino)quinoline-3-carbonitrile], the EC50 with TNFα (setting [1]) worked out at 60 nM. This compound also had an IC50 on Human Cot (IC50 HTRF) of 3 nM.

On to `Cc1nc(F)ccc1[C@H](Nc1cc(Cl)c2ncc(C#N)c(NCC3(C(F)F)CC3)c2c1)c1cn(C2(C(F)(F)F)CC2)nn1` [Example 636, (S)-8-chloro-4-(((1-(difluoromethyl)cyclopropyl)-methyl)amino)-6-(((6-fluoro-2-methylpyridin-3-yl)(1-(1-(trifluoromethyl)cyclopropyl)-1H-1,2,3-triazol-4-yl)methyl)amino)quinoline-3-carbonitrile], for which the EC50 in the experiment on TNFα (setting [1]) was found to be 720 nM. The IC50 on Human Cot (IC50 HTRF) is 69 nM.

Regarding `Cc1nc(F)ccc1[C@H](Nc1cc(C#N)c2ncc(C#N)c(NCC(C)(C)CCl)c2c1)c1cn(C2(C(F)(F)F)CC2)nn1` [Example 637, (S)-4-((3-chloro-2,2-dimethylpropyl)amino)-6-(((6-fluoro-2-methylpyridin-3-yl)(1-(1-(trifluoromethyl)-cyclopropyl)-1H-1,2,3-triazol-4-yl)methyl)amino)-quinoline-3,8-dicarbonitrile], in the experiment with TNFα (setting [1]), the EC50 is 85 nM. Also, at Human Cot (IC50 HTRF), inhibition was half-maximal at 3 nM (IC50).

Take `Cc1nc(F)ccc1[C@H](Nc1cc(C#N)c2ncc(C#N)c(NCC3(C(F)F)CC3)c2c1)c1cn(C2(C(F)(F)F)CC2)nn1` [Example 638, (S)-4-(((1-(difluoromethyl)-cyclopropyl)methyl)amino)-6-(((6-fluoro-2-methylpyridin-3-yl)(1-(1-(trifluoromethyl)cyclopropyl)-1H-1,2,3-triazol-4-yl)methyl)amino)quinoline-3,8-dicarbonitrile]: the concentration giving a half-maximal response (EC50) in the experiment on TNFα (setting [1]) was 858 nM. On Human Cot (IC50 HTRF), the IC50 worked out at 58 nM.

As to `Cc1nc([C@H](Nc2cc(Cl)c3ncc(C#N)c(NCC(C)(C)C)c3c2)c2cn(C3(C(F)F)CC3)nn2)c(C)o1` [Example 639, (S)-8-chloro-6-(((1-(1-(difluoromethyl)cyclopropyl)-1H-1,2,3-triazol-4-yl)(2,5-dimethyloxazol-4-yl)methyl)amino)-4-(neopentylamino)quinoline-3-carbonitrile], the EC50 in the experiment with TNFα (setting [1]) was 806 nM. For the same compound, the IC50 against Human Cot (IC50 HTRF) was found to be 58 nM.
